In patent US20230023092A1, “TREATMENT OF DEPRESSION AND OTHER VARIOUS DISORDERS WITH PSILOCYBIN” (COMPASS […], priority 2019, published 2023):
≈ marks a conversion by molar mass, not a printed value.

Columns and labels:
[1] = Solubility and hygroscopicity of psilocybin (Polymorph A or A′); type: physicochemical; settings: in Water; form Polymorph A or A′
Description: In some embodiments, the psilocybin of the disclosure in the form Polymorph A or A′ has the general properties illustrated in Table D.

healthy subjects [2] = assay: CANTAB Paired Associates Learning (PALTEA); type: in vivo, human; settings: Day 28
Description: In some embodiments, the Paired Associates Learning (PAL) test is utilized to evaluate safety and/or efficacy of psilocybin. The PAL task is a measure of visuo-spatial memory in which study subjects are required to remember locations at which visual stimuli are located. […] One or more of them will contain a pattern. […] If the subject makes an error, the boxes are opened in sequence again to remind the subject of the locations of the patterns. Increased difficulty levels can be used to test high-functioning, healthy individuals. The primary metric for this test is the number of errors made. This test takes approximately 8 min to complete. […]
The following list of outcome measures are non-exhaustive. • a. The short-term change from Baseline (Day −1 [Visit 2]) to Day 7 (Visit 5) in cognitive measures of attention, spatial and working memory and executive function was measured by a composite score of the CANTAB Panel (Spatial Working Memory [SWM], Rapid Visual Information Processing [RVP], Paired Associates Learning [PAL]). • b. The short-term change from Baseline (Day −1 [Visit 2]) to Day 7 (Visit 5) in Social Cognition Panel scales (Pictorial Empathy Test [PET], Reading the Mind in the Eyes Test [RMET], Toronto Empathy Questionnaire [TEQ], Social Value Orientation [SVO], Scale of Social Responsibility [SSR]). • c. […]

healthy subjects [3] = assay: Toronto Empathy Questionnaire (TEQ); type: in vivo, human; settings: Day 7
Description: In some embodiments, the Toronto Empathy Questionnaire (TEQ) is utilized to evaluate the safety and/or efficacy of psilocybin. The TEQ represents empathy as a primarily emotional process. […] The TEQ is a brief, reliable and valid instrument for the assessment of empathy. In some embodiments, after treating according to the methods of the disclosure, a subject's TEQ score increases by about 5%, about 10%, about 15%, about 20%, about 25%, about 30%, about 35%, about 40%, about 45%, about 50%, about 55%, about 60%, about 65%, about 70%, about 75%, about 80%, about 85%, about 90%, about 95%, or about 100%, about 110%, about 120%, about 130%, about 140%, about 150%, about 160%, about 170%, about 180%, about 190%, about 200%, about 210%, about 220%, about 230%, about 240%, about 250%, about 260%, about 270%, about 280%, about 290%, or about 300%, or more, compared to prior to treatment.
The Pictorial Empathy Test (PET), Reading the Mind in the Eyes Test (RMET), Scale of Social Responsibility (SSR), Social Value Orientation (SVO), and Toronto Empathy Questionnaire (TEQ) were performed. Table 20 summarizes the results of the mixed model for repeated measures (MMRM) analysis for each of the aforementioned social cognition panel scales measured on Day 7 and Day 84 after study drug administration.

SMILES: CN(C)CCc1c[nH]c2cccc(OP(=O)(O)O)c12 [Psilocybin, psilocybin]
- solubility [1]: ~15 mg/mL (≈ 52.8 mM)
- PALTEA improvement compared to placebo (LS mean difference from placebo) (healthy subjects [2]; 10 mg): ~2 point
- PALTEA improvement compared to placebo (LS mean difference from placebo) (healthy subjects [2]; 25 mg): ~2 point
- TEQ change from baseline (LS mean) (healthy subjects [3]; psilocybin 10 mg): −0.1
- TEQ change from baseline, LS mean difference (healthy subjects [3]; psilocybin 10 mg - placebo): 0.1
- TEQ change from baseline (LS mean) (healthy subjects [3]; psilocybin 25 mg): 0.0
- TEQ change from baseline, LS mean difference (healthy subjects [3]; psilocybin 25 mg - 10 mg): 0.1
- TEQ change from baseline, LS mean difference (healthy subjects [3]; psilocybin 25 mg - placebo): 0.2
